Legend:
hCAR promoter = assay: NHR-promoter luciferase screen, hCAR promoter; type: cell-based, human; conditions: for luciferase activity normalized to lacZ activity and to a control, hCAR: hCAR promoter-luciferase, CV-1 cells, NHR +/- ligand, control = 1.00; for Luc. act., normalized to lacZ / Normalized Luc. act., normalized to control: hCAR promoter, HR/ligand component
Description: (§1) The use, feasibility, and reproducibility of the functional NHR-promoter screen in a 48-well format have been tested validated. Briefly, there were co-expressed 50 ng of each NHR/NHR homodimer or NHR/RXR heterodimer with 100 ng promoter/luciferase construct and 50 ng of LacZ (as a control for transfection efficiency) in CV-1 cells using Fugene HD (Roche) as a transfection reagent (alternatively or additionally, a CMV-YFP construct can be used as a transfection control). Each of the nuclear hormone receptors that were used in these experiments was cloned into a pcDNA3.1 vector and comprised a C-terminally linked V5H6 tag. Twenty-four hours after transfection, appropriate ligands were added, where applicable, (see Table 5 for various ligands and concentrations and after 48 hrs, samples were assayed for luciferase and LacZ activity. To measure for luciferase activity 15 ul of sample was added to 30 ul of luciferase buffer (20 mM tricine, 1.07 mM MgCarbonate, 2.67 mM MgSulfate, 0.1 mM Naz-EDTA, 5 mM DTT, 5 mM ATP, 0.15 mg/ml CoA, 0.5 mM Luciferin), mixed briefly, and run in a Perkin Elmer Victor 5 luminometer. Thus, the functional NHR-promoter screen was used to observe the transcriptional activity of 29 promoters from various physiological pathways including inflammation, lipid and sugar metabolism, cholesterol transport, xenobiotic metabolism, and circadian rhythm.
(§2) The promoters that facilitate transcription of the indicated gene products that were tested using the protocols described herein are listed in the first row of the table. The nuclear hormone receptors and, where applicable, ligands that were assayed for their transcriptional effects on the promoters are listed in the first column of the table. The data represent the luciferase activity of each sample normalized to both the lacZ activity of that sample and to a control, e.g., no NHR or ligand, as customary in the art. As described previously, these normalizations allow the transcriptional activity of each reporter cell to be compared to other samples.
(§3) Tables 7-40 show the transcriptional effects of the hormone receptors, and, where applicable, ligands (orphan receptors are screened without ligand), on each individual promoter. […] The control data of each table are shown in their last rows.

mPgc1b promoter = assay: NHR-promoter luciferase screen, mPgc1b promoter; type: cell-based, mouse; conditions: for Luc. act., normalized to lacZ / Normalized Luc. act., normalized to control: PGC1b promoter reporter, co-transfected HR, without or with its ligand; for Normalized Luc. act., normalized to control: relative to control; for luciferase activity normalized to lacZ activity and to a control, mPgc1b: mPgc1b promoter-luciferase, CV-1 cells, NHR +/- ligand, control = 1.00
Description: Briefly, there were co-expressed 50 ng of each NHR/NHR homodimer or NHR/RXR heterodimer with 100 ng promoter/luciferase construct and 50 ng of LacZ (as a control for transfection efficiency) in CV-1 cells using Fugene HD (Roche) as a transfection reagent (alternatively or additionally, a CMV-YFP construct can be used as a transfection control). Each of the nuclear hormone receptors that were used in these experiments was cloned into a pcDNA3.1 vector and comprised a C-terminally linked V5H6 tag.
as §2, §3

mUCP1 promoter = assay: NHR-promoter luciferase screen, mUCP1 promoter; type: cell-based, mouse; conditions: for Luc. act., normalized to lacZ / Normalized Luc. act., normalized to control: mUCP1 promoter reporter, co-transfected HR, with or without its ligand; for Normalized Luc. act., normalized to control: relative to control; for luciferase activity normalized to lacZ activity and to a control, mUCP!: mUCP! promoter-luciferase, CV-1 cells, NHR +/- ligand, control = 1.00
Description: as §1, §2, §3

hPOMC promoter = assay: NHR-promoter luciferase screen, hPOMC promoter; type: cell-based, human; conditions: for luciferase/LacZ, hPOMC (selected results): hPOMC promoter-luciferase, NHR +/- ligand, control = 1.0; for Luc. act., normalized to lacZ / Normalized Luc. act., normalized to control: hPOMC promoter, HR/ligand component; for hPOMC promoter reporter activity: transcription factor +/- ligand, control = 1.00
Description: as §1, §2, §3

mUCP3 promoter = assay: NHR-promoter luciferase screen, mUCP3 promoter; type: cell-based, mouse; conditions: for Normalized Luc. act., normalized to control / Luc. act., normalized to lacZ: mUCP3 promoter reporter; for Normalized Luc. act., normalized to control: HR without or with its ligand, relative to control; for Luc. act., normalized to lacZ: hormone receptor (HR) without or with its ligand; for mUCP3 promoter reporter activity: transcription factor +/- ligand, control = 1.00
Description: as §1, §2, §3

MCP-1 promoter = assay: NHR-promoter luciferase screen, MCP-1 promoter; type: cell-based; conditions: for Normalized Luc. act., normalized to control / Luc. act., normalized to lacZ: MCP-1 promoter reporter; for Normalized Luc. act., normalized to control: HR without or with its ligand, relative to control; for Luc. act., normalized to lacZ: hormone receptor (HR) without or with its ligand; for mMCP-1 promoter reporter activity: transcription factor +/- ligand, control = 1.00
Description: as §1, §2, §3

Row | Substance | luciferase activity normalized to lacZ activity and to a control, hCAR (hCAR promoter) | Luc. act., normalized to lacZ (hCAR promoter) | Normalized Luc. act., normalized to control (hCAR promoter) | Luc. act., normalized to lacZ (mPgc1b promoter) | Normalized Luc. act., normalized to control (mPgc1b promoter) | luciferase activity normalized to lacZ activity and to a control, mPgc1b (mPgc1b promoter) | Luc. act., normalized to lacZ (mUCP1 promoter) | Normalized Luc. act., normalized to control (mUCP1 promoter) | luciferase activity normalized to lacZ activity and to a control, mUCP! (mUCP1 promoter) | luciferase/LacZ, hPOMC (selected results) (hPOMC promoter) | Luc. act., normalized to lacZ (hPOMC promoter) | Normalized Luc. act., normalized to control (hPOMC promoter) | hPOMC promoter reporter activity (hPOMC promoter) | Normalized Luc. act., normalized to control (mUCP3 promoter) | Luc. act., normalized to lacZ (mUCP3 promoter) | mUCP3 promoter reporter activity (mUCP3 promoter) | Normalized Luc. act., normalized to control (MCP-1 promoter) | Luc. act., normalized to lacZ (MCP-1 promoter) | mMCP-1 promoter reporter activity (MCP-1 promoter)
1 | GR: Glucocorticoid Receptor (NR3C1), cDNA driver | 0.36 | 11.25 | 0.4 | 3.2 | 0.3 | 0.27 | 1.9 | 0.4 | 0.42 | 0.2 | 0.7 | 0.2 | 0.16 | 0.9 | 0.59 | 0.88 | 0.2 | 23.9 | 0.22
2 | NR4a1: NR4a1 (NR4A1; NUR77), nuclear hormone receptor cDNA driver | 0.97 | 30.7 | 1.0 | 17.1 | 1.4 | 1.45 | 7.6 | 1.7 | 1.70 | 3.6 | 15.3 | 3.6 | 3.57 | 2.1 | 1.40 | 2.07 | 0.7 | 76.3 | 0.71
3 | AR: Androsterone Receptor (NR3C4), cDNA driver | 0.89 | 28.0 | 0.9 | 9.0 | 0.8 | 0.76 | 3.3 | 0.7 | 0.74 |  | 1.8 | 0.4 | 0.42 | 2.5 | 1.69 | 2.50 | 0.6 | 62.4 | 0.58
4 | PNR: Photoreceptor-specific Nuclear Receptor (NR2E3), cDNA driver | 0.38 | 11.9 | 0.4 | 4.9 | 0.4 | 0.42 | 1.7 | 0.4 | 0.37 |  | 1.5 | 0.3 | 0.34 | 0.8 | 0.5 | 0.79 | 1.1 | 116.3 | 1.09
5 | TLX: Tailless (homolog of drosophila) (NR2E1), cDNA driver | 0.56 | 17.6 | 0.6 | 4.5 | 0.4 | 0.38 | 2.8 | 0.6 | 0.63 |  | 2.6 | 0.6 | 0.60 | 1.1 | 0.8 | 1.11 | 0.6 | 60.9 | 0.57
6 | SF-1: Steroidogenic Factor 1 (NR5A1, SF1), cDNA driver | 3.60 | 113.6 | 3.6 | 33.2 | 2.8 | 2.80 | 11.3 | 2.5 | 2.54 |  | 13.1 | 3.1 | 3.06 | 5.5 | 3.7 | 5.46 | 2.0 | 217.9 | 2.04
7 | PPARa: Peroxisome proliferator activated receptor α (NR1C1), cDNA driver | 1.39 | 43.9 | 1.4 | 9.33 | 0.8 | 0.79 | 2.6 | 0.6 | 0.59 |  | 2.4 | 0.6 | 0.57 | 2.1 | 1.5 | 2.15 | 1.1 | 121.8 | 1.14
8 | PPARg: Peroxisome proliferator activated receptor γ (NR1C3), cDNA driver | 1.58 | 49.8 | 1.6 | 11.35 | 1.0 | 0.96 | 2.9 | 0.7 | 0.66 | 0.6 | 2.8 | 0.6 | 0.65 | 1.8 | 1.2 | 1.83 | 1.4 | 146.1 | 1.36
9 | ERR1: Estrogen Related Receptor α (NR3B1, ERRa), cDNA driver | 0.82 | 25.8 | 0.8 | 8.8 | 0.7 | 0.75 | 3.9 | 0.9 | 0.88 |  | 2.7 | 0.6 | 0.63 | 1.5 | 1.0 | 1.47 | 2.2 | 237.3 | 2.22
10 | VDR: Vitamin D Receptor (NR1I1), cDNA driver | 0.83 | 26.1 | 0.8 | 6.85 | 0.6 | 0.58 | 2.8 | 0.6 | 0.63 |  | 3.8 | 0.9 | 0.90 | 1.5 | 1.0 | 1.49 | 2.0 | 215.8 | 2.02

— patent US20110263454A1, “Methods of Identifying Functional Characteristics of Promoters, Transcription Modifying Proteins and Transcription Modulating Agents” (Salk Institute for Biological Studies, priority 2008, published 2011)
